Measurements published in article PMC2709242 (Molecular cell, 2009).
Each block holds one molecule with its values, some of them ahead of it.

How the values were obtained:
[1] = test system: K63-linked diUb (K63-Ub2); assay: Fluorescence anisotropy binding to K63-linked diUb
K63-Ub4 = assay: Fluorescence anisotropy binding to K63-linked tetraUb; settings: ratio of Kd values, solution-state measurements

linkage selectivity for diUb (K63-Ub2 vs K48-Ub2), in words [1]: very little selectivity
K63-Ub2 binding affinity, in words ([1]; compared with other tUIM peptides): substantially more weakly
Molecule: REVNSQEREVNSQE: Rap80 tUIM peptide with linker between UIMs extended to 14 residues

preference for K63-Ub4 over K48-Ub4 (K63-Ub4): 7 fold
B1: Rap80 (residues 1 - 233): soluble fragment of Rap80 longer than the minimal tUIMs (protein, UniProt Q96RL1 1-233, looked up, fragment)
chain: MPRRKKKVKEVSESRNLEKKDVETTSSVSVKRKRRLEDAFIVISDSDGEEPKEENGLQKTKTKQSNRAKCLAKRKIAQMTEEEQFALALKMSEQEAREVNSQEEEEEELLRKAIAESLNSCRPSDASATRSRPLATGPSSQSHQEKTTDSGLTEGIWQLVPPSLFKGSHISQGNEAEEREEPWDHTEKTEEEPVSGSSGSWDQSSQPVFENVNVKSFDRCTGHSAEHTQCGKP
